{
  "source": "patent US20190224238A1",
  "about": "“TUMOR THERAPEUTIC DRUG” (HUBEI SOUNDNY BIO TECH CO., LTD., priority 2016, published 2019)",
  "key": {"[1]": {"experiment": "Toxicity and side effect test in BALB/c mice (GPT, serum creatinine, APTT, PT)", "assay_type": "in vivo", "settings": "tail vein, once a day for 7 days; blood on 8th day", "protocol": "3) The prepared H22-MPs (MTX) was injected into 8 BALB/c mice via tail vein respectively, as the experimental group 1; the prepared Ery-MPs (MTX) was injected into 8 BALM mice via tail vein respectively, as the experimental group 2; 8 mice BALB/c mice were injected with methotrexate via tail vein at a dose of 1 μg/g, as the experimental group 3; 8 mice BALB/c mice were injected with 0.9% (g/ml) physiological saline via tail vein, as the control group.\n4) On the 8th day, venous blood was taken from the mice in the experimental group 1, the experimental group 2, the experimental group 3 and the control group, and the content of glutamic-pyruvic transaminase, creatinine in serum and the content of APTT and PT in the blood were detected. The body weights of the mice were weighed."}, "[2]": {"tested_on": "Lewis cell lung cancer model", "settings": "tail vein, once a day for 10 days from 5th day", "procedure": "3) On the 1st day, 1×10^6 Lewis cells were inoculated into a C57BL/6 mouse via tail vein, and a total of 32 C57BL/6 mice were injected to obtain the C57BL/6 mice of Lewis cell lung cancer model which were randomly divided into four groups equally, namely, experiment group 1, experiment group 2, experiment group 3 and control group.\nFrom the 15th day, all of the C57BL/6 mice were fed normally, and the survival status of the C57BL/6 mice in each group was observed."}, "[3]": {"tested_on": "H22 cell hepatoma ascites model", "experiment": "Survival of BALB/c mouse H22 hepatoma ascites model", "assay_type": "in vivo", "settings": "until the 34th (H22-MPs), 33th (Ery-MPs), 31th (methotrexate) day; 10 mice per group", "procedure": "3) On the first day, 5×10^4 H22 cells were intraperitoneally inoculated into BALB/c mice, and a total of 40 BALB/c mice were injected to obtain the one with H22 cell hepatoma ascites model, which were randomly divided into four groups equally, namely experimental group 1, experimental group 2, experimental group 3 and control group. The BALB/c mice in experimental group 1 were intraperitoneally injected with H22-MPs (MTX); the BALM mice in experimental group 2 were intraperitoneally injected with Ery-MPs (MTX); the BALB/c mice in experimental group 3 were intraperitoneally injected with methotrexate at a dose of 1 μg/g; and the BALB/c mice in the control group were intraperitoneally injected with 200 μL of 0.9% (g/ml) physiological saline.\n4) From the 4th day, according to the same injection procedure, the experimental groups were injected with H22-MPs (MTX), Ery-MPs (MTX) and chemotherapy drug (methotrexate) once a day for 7 consecutive days, respectively, while the control group was injected with 200 μL 0.9% (g/ml) physiological saline once a day for 7 consecutive days. From the 11th day, all of the BALB/c mice were fed normally, and the survival status of the BALB/c mice in each group was observed."}},
  "data": [
    {"smiles": "CN(Cc1cnc2nc(N)nc(N)c2n1)c1ccc(C(=O)N[C@@H](CCC(=O)O)C(=O)O)cc1", "note": "[methotrexate]", "values": [
      {"measurement": "average activated partial prothrombin time (APTT)", "setting": "[1]", "value": 16.5, "unit": "s"},
      {"measurement": "average plastin time (PT)", "setting": "[1]", "value": 13.13, "unit": "s"},
      {"measurement": "average serum creatinine content", "setting": "[1]", "value": 26.13, "unit": "µmol/L"},
      {"measurement": "therapeutic effect on lung cancer in mice (survival curve)", "setting": "[2]", "value": "much poorer than that of Ery-MPs (MTX) and LLC-MPs (MTX)"},
      {"measurement": "total mice died", "setting": "[3]", "value": 9, "unit": "mice"}
    ]}
  ]
}
